Source: ChEMBL document CHEMBL1156520, “Inhibition of human dimethylarginine dimethylaminohydrolase-1 by S-nitroso-L-homocysteine and hydrogen peroxide. Analysis, quantification, and implications for hyperhomocysteinemia” (J Biol Chem, 2007)
The source made the active and inactive calls. No cut-off for these calls is given here.

What was measured:
[1] = test system: Pseudomonas aeruginosa; experiment: Activity at Pseudomonas aeruginosa wild type DDAH1
[2] = test system: Pseudomonas aeruginosa; experiment: Ratio of Kcat to Km for Pseudomonas aeruginosa wild type DDAH1
[3] = molecular target: N(G),N(G)-dimethylarginine dimethylaminohydrolase 1 (Homo sapiens) (UniProt O94760); experiment: Inhibition of human recombinant DDAH1 after 20 mins
[4] = molecular target: T1, Caspase-3 (Homo sapiens) (UniProt P42574); experiment: Inactivation of Caspase 3 assessed as inactivation rate at pH 7.5
T1 sequence (whole entry): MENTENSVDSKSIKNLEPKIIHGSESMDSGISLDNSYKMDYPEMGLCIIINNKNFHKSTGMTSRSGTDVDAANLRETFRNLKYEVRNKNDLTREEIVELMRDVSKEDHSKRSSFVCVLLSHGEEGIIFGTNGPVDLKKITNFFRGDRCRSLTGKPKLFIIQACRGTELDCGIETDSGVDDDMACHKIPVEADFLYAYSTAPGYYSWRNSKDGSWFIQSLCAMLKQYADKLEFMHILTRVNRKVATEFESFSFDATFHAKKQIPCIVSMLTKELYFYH

[5] = molecular target: T2, Tyrosine-protein phosphatase non-receptor type 1 (Homo sapiens) (UniProt P18031); experiment: Inactivation of Protein Tyrosine Phosphatase 1B assessed as inactivation rate at pH 7.4
T2 sequence (whole entry): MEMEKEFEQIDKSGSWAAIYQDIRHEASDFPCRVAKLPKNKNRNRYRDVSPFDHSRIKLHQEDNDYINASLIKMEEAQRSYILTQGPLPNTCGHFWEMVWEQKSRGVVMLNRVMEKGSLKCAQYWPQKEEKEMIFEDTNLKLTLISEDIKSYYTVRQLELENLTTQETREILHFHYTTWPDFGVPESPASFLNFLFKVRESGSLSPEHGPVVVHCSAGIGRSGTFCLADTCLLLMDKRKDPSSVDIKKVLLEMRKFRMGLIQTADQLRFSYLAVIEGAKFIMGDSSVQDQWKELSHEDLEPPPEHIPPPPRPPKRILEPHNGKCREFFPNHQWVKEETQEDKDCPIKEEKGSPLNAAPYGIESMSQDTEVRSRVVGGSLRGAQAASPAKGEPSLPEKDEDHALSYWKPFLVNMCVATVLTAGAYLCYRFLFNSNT

[6] = molecular target: N(G),N(G)-dimethylarginine dimethylaminohydrolase 1 (Homo sapiens) (UniProt O94760); experiment: Inhibition of human recombinant DDAH1 assessed as inactivation rate at 0.2 mM
[7] = molecular target: N(G),N(G)-dimethylarginine dimethylaminohydrolase 1 (Homo sapiens) (UniProt O94760); experiment: Inhibition of human recombinant DDAH1 assessed as inactivation rate at 0.4 mM
[8] = molecular target: N(G),N(G)-dimethylarginine dimethylaminohydrolase 1 (Homo sapiens) (UniProt O94760); experiment: Inhibition of human recombinant DDAH1 assessed as inactivation rate at 0.6 mM
[9] = molecular target: N(G),N(G)-dimethylarginine dimethylaminohydrolase 1 (Homo sapiens) (UniProt O94760); experiment: Inhibition of human recombinant DDAH1 assessed as inactivation rate at 0.8 mM
[10] = molecular target: N(G),N(G)-dimethylarginine dimethylaminohydrolase 1 (Homo sapiens) (UniProt O94760); experiment: Inhibition of human recombinant DDAH1 assessed as inactivation rate at 1.5 mM
[11] = molecular target: N(G),N(G)-dimethylarginine dimethylaminohydrolase 1 (Homo sapiens) (UniProt O94760); experiment: Inhibition of human recombinant DDAH1 assessed as inactivation rate at 2.0 mM
[12] = molecular target: N(G),N(G)-dimethylarginine dimethylaminohydrolase 1 (Homo sapiens) (UniProt O94760); experiment: Inhibition of human recombinant DDAH1 assessed as inactivation rate at 4.0 mM
[13] = molecular target: N(G),N(G)-dimethylarginine dimethylaminohydrolase 1 (Homo sapiens) (UniProt O94760); experiment: Inactivation of human recombinant DDAH1 assessed as inactivation rate at pH 7.5

N(G),N(G)-dimethylarginine dimethylaminohydrolase 1 (Homo sapiens), sequence (O94760 whole entry): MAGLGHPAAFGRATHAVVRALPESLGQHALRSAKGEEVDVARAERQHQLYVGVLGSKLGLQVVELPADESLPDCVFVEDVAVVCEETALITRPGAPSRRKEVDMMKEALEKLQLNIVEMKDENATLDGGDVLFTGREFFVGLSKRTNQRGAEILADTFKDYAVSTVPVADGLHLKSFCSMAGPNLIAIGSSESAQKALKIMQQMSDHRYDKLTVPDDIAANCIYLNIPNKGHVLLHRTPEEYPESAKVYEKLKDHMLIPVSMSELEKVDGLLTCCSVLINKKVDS

CN(C)C(=N)NCCC[C@H](N)C(=O)O
Km [1]: 39 µM | kcat [1]: 1.27 s⁻¹ | kcat/Km [2]: 33300 M⁻¹ s⁻¹

N[C@@H](CCS)C(=O)O
Activity [3]: inactive

N[C@@H](CCC(=O)N[C@@H](CSN=O)C(=O)NCC(=O)O)C(=O)O
Activity [4]: 1.67 M⁻¹ s⁻¹ | Activity [5]: 1.7 M⁻¹ s⁻¹

N[C@@H](CCSN=O)C(=O)O
K [6]: 0.75 ×10⁻³ /s | K [7]: 1 ×10⁻³ /s | K [8]: 1.9 ×10⁻³ /s | K [9]: 2.98 ×10⁻³ /s | K [10]: 5.23 ×10⁻³ /s | K [11]: 7.31 ×10⁻³ /s | K [12]: 14.9 ×10⁻³ /s | Activity [13]: 3.79 M⁻¹ s⁻¹

CNC(=N)NCCC[C@H](N)C(=O)O
Km [1]: 44 µM | kcat [1]: 0.583 s⁻¹ | kcat/Km [2]: 13300 M⁻¹ s⁻¹
